Each structure is given as a SMILES string. Activity calls are given as the source filed them. The rule behind the calls is not given here.

The values that follow come from ChEMBL document CHEMBL4414641, “Chemical Constituents of Anneslea fragrans and Their Antiausterity Activity against the PANC-1 Human Pancreatic Cancer Cell Line” (J Nat Prod, 2019).

Series [1] deals with PANC-1. The experiment in a line: Anti-austerity activity against nutrient-deprived human PANC1 cells assessed as cell death incubated for 24 hrs by WST-8 assay. Format: functional. Background: Tetrazolium dyes change colour on reduction, which living cells bring about.
Series [2] concerns PANC-1. Nature of the series: Cytotoxicity against nutrient-rich DMEM cultured human PANC1 cells at PC50 incubated for 24 hrs by WST-8 assay. The class given is cell-based. The conditions noted are these: panc-1, 24 h.
The subject of series [3] is PANC-1. Nature of the series: Inhibition of cell migration in human PANC1 cells assessed as open wound area at 100 uM cultured in nutrient rich DMEM medium measured after 24 hrs by quantitative real-time imaging based wound healing assay relative to control. The class given is functional. Also noted: scale not given: the % may be the effect or the level left.
Series [4] has as its system PANC-1. Nature of the series: Inhibition of cell migration in human PANC1 cells assessed as open wound area at 100 uM cultured in nutrient rich DMEM medium measured after 48 hrs by quantitative real-time imaging based wound healing assay (reference value: 12%). Format: functional. Also noted: scale not given: the % may be the effect or the level left.
In series [5] the test system is PANC-1. Nature of the series: Inhibition of cell migration in human PANC1 cells assessed as closed wound area at 100 uM cultured in nutrient rich DMEM medium measured within 24 hrs by quantitative real-time imaging based wound healing assay (reference value: 100%). The class given is functional. Also noted: scale not given: the % may be the effect or the level left.

Series [6] deals with PANC-1. Nature of the series: Inhibition of cell migration in human PANC1 cells assessed as open wound area at 100 uM cultured in nutrient rich DMEM medium measured after 72 hrs by quantitative real-time imaging based wound healing assay (reference value: 5%). Also noted: scale not given: the % may be the effect or the level left. Format: functional.
Series [7] relates to PANC-1. The experiment in a line: Inhibition of cell migration in human PANC1 cells at 100 uM cultured in nutrient rich DMEM medium measured every 15 mins for 72 hrs by quantitative real-time imaging analysis. Format: functional, cell-based.
Series [8] concerns PANC-1. Nature of the series: Inhibition of cell migration in human PANC1 cells assessed as decrease in velocity of cell migration at 100 uM cultured in nutrient rich DMEM medium measured every 15 mins for 72 hrs by quantitative real-time imaging analysis. The class given is functional, cell-based.

As to `O=C(CCc1ccc(O)cc1)c1ccc(O)cc1O[C@@H]1O[C@H](CO)[C@@H](O)[C@H](O)[C@H]1O`, the PC50 in the series on PANC-1 [1] is over 100 µM. In the series on PANC-1 [2], the Activity result was “Non-Toxic”.
For `C[C@@H]1O[C@@H](OC[C@H]2O[C@@H](Oc3c(-c4ccc(O)cc4)oc4cc(O)cc(O)c4c3=O)[C@H](O)[C@@H](O)[C@@H]2O)[C@H](O)[C@H](O)[C@H]1O` [NICOTIFLOROSIDE] the same measures were 67.1 µM and “Non-Toxic”.
Taken in the same sequence, the figures for `C[C@@H]1O[C@@H](Oc2c(-c3ccc(O)cc3)oc3cc(O)cc(O)c3c2=O)[C@H](O)[C@H](O)[C@H]1O` [AFZELIN] were 8.9 µM and “Non-Toxic”.
On to `O=C(/C(O)=C/c1ccc(O)c(O)c1)c1ccc(O[C@H]2COC(=O)[C@@H]2O)cc1O`, for which the PC50 with PANC-1 [1] was over 100 µM. The Activity result in the series with PANC-1 [2] is given as “Non-Toxic”.
For the compound `C[C@@H]1O[C@@H](O[C@H]2[C@H](Oc3c(-c4ccc(O)cc4)oc4cc(O)cc(O)c4c3=O)O[C@H](CO)[C@@H](O)[C@@H]2O)[C@H](O)[C@H](O)[C@H]1O`, in the series on PANC-1 [1], the PC50 turned out to be 17.4 µM. In the series on PANC-1 [2], the Activity entry is given as “Non-Toxic”.
Consider `C=C(C)[C@@H]1CC[C@]2(C)CC[C@]3(C)[C@H](CC[C@@H]4[C@@]5(C)CC[C@H](O)C(C)(C)[C@@H]5CC[C@]43C)[C@@H]12` [LUPEOL], for which the PC50 with PANC-1 [1] was found to be 38.6 µM. Besides, in the series with PANC-1 [2], the Activity result is on record as “Non-Toxic”.
Regarding `CC1(C)OC[C@H]2O[C@@H](Oc3ccc(C(=O)CCc4ccc(O)cc4)c(O)c3)[C@H](O)[C@@H](O)[C@@H]2O1`, the Activity with PANC-1 [3] is given as 93%; in the series on PANC-1 [4], 81%; in the series on PANC-1 [5], 38%; in the series on PANC-1 [2], “Non-Toxic”; in the series with PANC-1 [6], 72%. The PC50 in the series on PANC-1 [1] was 60.9 µM. Moreover, the inhibition entry with PANC-1 [7] and in the series on PANC-1 [8] was “Active” in each case.
As for `Oc1cc(O)c2c(c1)O[C@H](c1ccc(O)c(O)c1)[C@H](O)C2` [(-)-EPICATECHIN], in the series on PANC-1 [1], the PC50 stood at 14.7 µM. The Activity result with PANC-1 [2] is “Non-Toxic”.
Regarding `O=C(CCc1ccc(O)c(O)c1)c1ccc(O)cc1O`, the Activity result with PANC-1 [2] is on record as “Non-Toxic”.
As to `O=C(/C=C/c1ccc(O)c(O)c1)c1ccc(O)cc1O` [BUTEIN], the PC50 with PANC-1 [1] was found to be 67 µM. The Activity entry in the series with PANC-1 [2] is “Non-Toxic”.
On to `CC[C@H](/C=C/[C@@H](C)[C@H]1CC[C@H]2C3=CC[C@H]4C[C@@H](O)CC[C@]4(C)[C@H]3CC[C@]12C)C(C)C`, for which the PC50 in the series on PANC-1 [1] came to 58.1 µM. Also, in the series with PANC-1 [2], the Activity entry is given as “Non-Toxic”.
For `O=C(CCc1ccc(O)cc1)c1ccc(O[C@@H]2O[C@H](CO)[C@@H](O)[C@H](O)[C@H]2O)cc1O` [CONFUSOSIDE], in the series with PANC-1 [1], the PC50 came out at 82.6 µM. Moreover, in the series on PANC-1 [2], the Activity entry is “Non-Toxic”.
In the case of `COc1cc2oc(=O)ccc2cc1O` [ISOSCOPOLETIN], the PC50 in the series on PANC-1 [1] amounted to 26.9 µM. In addition, in the series with PANC-1 [2], the Activity result is recorded as “Non-Toxic”.
As to `COc1cc(C[C@H]2C(=O)OC[C@@H]2Cc2ccc(OC)c(OC)c2)ccc1O` [ARCTIGENIN], in the series on PANC-1 [1], the PC50 came to 0.7 µM. In addition, in the series with PANC-1 [2], the Activity result was “Non-Toxic”.
Take `C=C(C)[C@@H]1CC[C@]2(CO)CC[C@]3(C)[C@H](CC[C@@H]4[C@@]5(C)CC[C@H](O)C(C)(C)[C@@H]5CC[C@]43C)[C@@H]12` [BETULIN]: the PC50 in the series with PANC-1 [1] was found to be 8.4 µM. For the same compound, the Activity result with PANC-1 [2] is on record as “Non-Toxic”.
Consider `O=C(CCc1ccc(O)c(O)c1)c1ccc(O[C@@H]2O[C@H](CO)[C@@H](O)[C@H](O)[C@H]2O)cc1O`, for which, in the series on PANC-1 [1], the PC50 came to 10.4 µM. Besides, the Activity entry with PANC-1 [2] is reported as “Non-Toxic”.
For `O=c1c(O[C@@H]2O[C@H](CO)[C@@H](O)[C@H](O)[C@H]2O)c(-c2ccc(O)c(O)c2)oc2cc(O)cc(O)c12` [ISOQUERCETIN] the same measures were over 100 µM and “Non-Toxic”.
As for `O=c1c(O)c(-c2ccc(O)c(O)c2)oc2cc(O)cc(O)c12` [QUERCETIN], the PC50 in the series with PANC-1 [1] was found to be 21.8 µM. Further, the Activity result in the series on PANC-1 [2] is given as “Non-Toxic”.
